Tests used:
[1] = system: HT-29 colon cancer cell line; assay: Live/Dead cytotoxicity assay, hybridoma supernatant; conditions: 5 days
Protocol: (§1) In conjunction with testing for antibody binding, the cytotoxic effects of the hybridoma supernatants were tested in the same colon cancer and normal cell lines: HT-29, SW1116 (and Lovo for AR26A439.3) and CCD-27sk. The Live/Dead cytotoxicity assay was obtained from Molecular Probes ([…].). The assays were performed according to the manufacturer's instructions with the changes outlined below. Cells were plated before the assay at the predetermined appropriate density. After 2 days, 100 μl of supernatant from the hybridoma microtitre plates were transferred to the cell plates and incubated in a 5 percent CO2 incubator for 5 days. […] An anti-EGFR antibody (C225) was also used in the assay for comparison. After 5 days of treatment, the plate was then emptied by inverting and blotting dry. Room temperature DPBS (Dulbecco's phosphate buffered saline) containing MgCl2 and CaCl2 was dispensed into each well from a multichannel squeeze bottle, tapped 3 times, emptied by inversion and then blotted dry. 50 μl of the fluorescent Live/Dead dye diluted in DPBS containing MgCl2 and CaCl2 was added to each well and incubated at 37° C. in a 5% CO2 incubator for 30 minutes. The plates were read in a Perkin-Elmer HTS7000 fluorescence plate reader and the data was analyzed in Microsoft Excel.

[2] = as above; conditions: human
Protocol: as §1

[3] = system: CCD-27sk normal cell line; assay: as above; conditions: 5 days
Protocol: as §1

| Structure (SMILES) | Cytotoxicity (%) HT-29 Average [1] [%] | cytotoxicity at 5 days [2] [%] | cytotoxicity at 5 days ([2]; Cytotoxicity (%) CCD-27sk Average) [%] | cytotoxicity at 5 days ([2]; Cytotoxicity (%) HT-29 Average) [%] | Cytotoxicity (%) CCD-27sk Average [3] [%] |
| --- | --- | --- | --- | --- | --- |
| C[C@@H]1C[C@@H]([C@H](O)CC2CC(=O)NC(=O)C2)C(=O)[C@@H](C)C1 [Cycloheximide] | 48 | 56 | 21 | 46 | 40 |
| [N-]=[N+]=[N-] [NaN3, sodium azide] | 57 | 4 |  | 59 |  |

From patent US20050027106A1, “Cancerous disease modifying antibodies” (priority 2003, published 2005)
